# From patent publication US20250084061A1, “SULFONYL FUNCTIONAL COMPOUND, METHODS AND USES THEREOF” (Hubei Biopesticide Engineering Research Centre, priority 2023, published 2025)
# Read-outs that look alike come from different tables or passages of the source.
# Tests used:
# Fusarium culmorum = experiment: Bactericidal (fungicidal) activity by microdilution; format: cell-based
# Leptosphaeria biglobosa = experiment: as above; format: cell-based
# Heliothis armigera = experiment: Insecticidal activity, artificial feed surface coating method; format: in vivo; details: Helicoverpa armigera, read-out: Insecticidal activity (mortality rate grade) Heliothis armigera
# Procedure: (§1) The insecticidal activity of sulfonyl functional compounds in the above embodiments were tested for agricultural biological functions, and the targets of insecticidal activity were Heliothis armigera, Plutella xylostella and Aphiscraccivora.
# (§2) Using Heliothis armigera and Plutella xylostella as target, the insecticidal activities of sulfonyl functional compounds were tested by conventional artificial feed surface coating method. 300 microliters of artificial feed and 20 microliters of test solution were added to each well of the 24-well cell culture plate. The test solution was used in different concentrations and repeated twice (Rep1 and Rep2). The concentrations of the test solution were 500 mg/L, 250 mg/L and 125 mg/L, respectively.
# (§3) The insecticidal activity of sulfonyl functional compounds against Aphiscraccivora was tested by the method of dipping. Mother liquors were prepared by the sulfonyl functional compounds provided in the above embodiments dissolved in ethanol, respectively. 500 mg/L, 250 mg/L or 125 mg/L test solution could be prepared by diluting the different mother liquors with a liquor that contained 0.1 mL/L of emulgator (Tween-80). Every test solution was tested twice (Rep1 and Rep2). A blank control was set up, and the activity results were compared with the blank control. The mortality rate of 0˜30%, 30˜50%, 50-70%, 70˜90%, or 90˜100% could be orderly set as 0, 3, 5, 7, or 9.
# Plutella xylostella = experiment: as above; format: in vivo; details: Plutella xylostella, read-out: Insecticidal activity (mortality rate grade) Plutella xylostella
# Procedure: as §1, §2, §3
# [1] = system: Corynespora leaf spot of tomato; experiment: Bactericidal (fungicidal) activity by microdilution; format: cell-based
# Botrytis cinerea = experiment: as above; format: cell-based
# Thanatephorus cucumeris = experiment: as above; format: cell-based
# Alternaria kikuchiana = experiment: as above; format: cell-based
# [2] = system: Colletotrichum gloeobosporioids; experiment: as above; format: cell-based
# Septoria nodorum Berk. = experiment: as above; format: cell-based
# Magnaporthe oryzae = format: cell-based
# Rhizoctonia solani = experiment: Bactericidal (fungicidal) activity by microdilution; format: cell-based
# Pythium aphanidermatum = experiment: as above; format: cell-based
# [3] = system: Verticillium dahliae.kieb.; experiment: as above; format: cell-based
# Aphiscraccivora = experiment: Insecticidal activity, dipping method; format: in vivo
# Procedure: as §1, §3
# [4] = system: Fusarium oxysporum f. sp. Niveum; experiment: Bactericidal (fungicidal) activity by microdilution; format: cell-based
smiles,measurement,setting,value
COC(=O)Nc1nc2ccccc2n1CCCCS(=O)(=O)O [III-3],Fungicidal activity (antibacterial rate grade) Fusarium culmorum,Fusarium culmorum; 12.5 mg/L,7 (The antibacterial rate of 70˜90% could be set as 7 if the target has small amounts of growth)
same,Fungicidal activity (antibacterial rate grade) Fusarium culmorum,Fusarium culmorum; 25 mg/L,9 (The antibacterial rate of 90˜100% could be set as 9 if the target has totally no growth)
same,Fungicidal activity (antibacterial rate grade) Fusarium culmorum,Fusarium culmorum; 50 mg/L,9 (The antibacterial rate of 90˜100% could be set as 9 if the target has totally no growth)
same,Fungicidal activity (antibacterial rate grade) Fusarium culmorum,Fusarium culmorum; 100 mg/L,9 (The antibacterial rate of 90˜100% could be set as 9 if the target has totally no growth)
same,Fungicidal activity (antibacterial rate grade) Leptosphaeria biglobosa,Leptosphaeria biglobosa; 12.5 mg/L,9 (The antibacterial rate of 90˜100% could be set as 9 if the target has totally no growth)
same,Fungicidal activity (antibacterial rate grade) Leptosphaeria biglobosa,Leptosphaeria biglobosa; 25 mg/L,9 (The antibacterial rate of 90˜100% could be set as 9 if the target has totally no growth)
same,Fungicidal activity (antibacterial rate grade) Leptosphaeria biglobosa,Leptosphaeria biglobosa; 50 mg/L,9 (The antibacterial rate of 90˜100% could be set as 9 if the target has totally no growth)
same,Fungicidal activity (antibacterial rate grade) Leptosphaeria biglobosa,Leptosphaeria biglobosa; 100 mg/L,9 (The antibacterial rate of 90˜100% could be set as 9 if the target has totally no growth)
same,mortality at 125 µg/mL,Heliothis armigera; 125 mg/L test solution,0 to 30%
same,mortality at 250 µg/mL,Heliothis armigera; 250 mg/L test solution,0 to 30%
same,mortality at 500 µg/mL,Heliothis armigera; 500 mg/L test solution,0 to 30%
same,mortality at 125 µg/mL,Plutella xylostella; 125 mg/L test solution,0 to 30%
same,mortality at 250 µg/mL,Plutella xylostella; 250 mg/L test solution,0 to 30%
same,mortality at 500 µg/mL,Plutella xylostella; 500 mg/L test solution,0 to 30%
same,Fungicidal activity (antibacterial rate grade) Corynespora leaf spot of tomato,[1]; 12.5 mg/L,3 (The antibacterial rate of 0˜30% could be set as 3 if the growth of the target is normal and consistent with that of the blank control)
same,Fungicidal activity (antibacterial rate grade) Corynespora leaf spot of tomato,[1]; 25 mg/L,3 (The antibacterial rate of 0˜30% could be set as 3 if the growth of the target is normal and consistent with that of the blank control)
same,Fungicidal activity (antibacterial rate grade) Corynespora leaf spot of tomato,[1]; 50 mg/L,7 (The antibacterial rate of 70˜90% could be set as 7 if the target has small amounts of growth)
same,Fungicidal activity (antibacterial rate grade) Corynespora leaf spot of tomato,[1]; 100 mg/L,7 (The antibacterial rate of 70˜90% could be set as 7 if the target has small amounts of growth)
same,Fungicidal activity (antibacterial rate grade) Botrytis cinerea,Botrytis cinerea; 12.5 mg/L,3 (The antibacterial rate of 0˜30% could be set as 3 if the growth of the target is normal and consistent with that of the blank control)
same,Fungicidal activity (antibacterial rate grade) Botrytis cinerea,Botrytis cinerea; 25 mg/L,3 (The antibacterial rate of 0˜30% could be set as 3 if the growth of the target is normal and consistent with that of the blank control)
same,Fungicidal activity (antibacterial rate grade) Botrytis cinerea,Botrytis cinerea; 50 mg/L,3 (The antibacterial rate of 0˜30% could be set as 3 if the growth of the target is normal and consistent with that of the blank control)
same,Fungicidal activity (antibacterial rate grade) Botrytis cinerea,Botrytis cinerea; 100 mg/L,3 (The antibacterial rate of 0˜30% could be set as 3 if the growth of the target is normal and consistent with that of the blank control)
same,Fungicidal activity (antibacterial rate grade) Thanatephorus cucumeris,Thanatephorus cucumeris; 12.5 mg/L,9 (The antibacterial rate of 90˜100% could be set as 9 if the target has totally no growth)
same,Fungicidal activity (antibacterial rate grade) Thanatephorus cucumeris,Thanatephorus cucumeris; 25 mg/L,9 (The antibacterial rate of 90˜100% could be set as 9 if the target has totally no growth)
same,Fungicidal activity (antibacterial rate grade) Thanatephorus cucumeris,Thanatephorus cucumeris; 50 mg/L,9 (The antibacterial rate of 90˜100% could be set as 9 if the target has totally no growth)
same,Fungicidal activity (antibacterial rate grade) Thanatephorus cucumeris,Thanatephorus cucumeris; 100 mg/L,9 (The antibacterial rate of 90˜100% could be set as 9 if the target has totally no growth)
same,Fungicidal activity (antibacterial rate grade) Alternaria kikuchiana,Alternaria kikuchiana; 12.5 mg/L,3 (The antibacterial rate of 0˜30% could be set as 3 if the growth of the target is normal and consistent with that of the blank control)
same,Fungicidal activity (antibacterial rate grade) Alternaria kikuchiana,Alternaria kikuchiana; 25 mg/L,3 (The antibacterial rate of 0˜30% could be set as 3 if the growth of the target is normal and consistent with that of the blank control)
same,Fungicidal activity (antibacterial rate grade) Alternaria kikuchiana,Alternaria kikuchiana; 50 mg/L,3 (The antibacterial rate of 0˜30% could be set as 3 if the growth of the target is normal and consistent with that of the blank control)
same,Fungicidal activity (antibacterial rate grade) Alternaria kikuchiana,Alternaria kikuchiana; 100 mg/L,3 (The antibacterial rate of 0˜30% could be set as 3 if the growth of the target is normal and consistent with that of the blank control)
same,Fungicidal activity (antibacterial rate grade) Colletotrichum gloeobosporioids,[2]; 12.5 mg/L,9 (The antibacterial rate of 90˜100% could be set as 9 if the target has totally no growth)
same,Fungicidal activity (antibacterial rate grade) Colletotrichum gloeobosporioids,[2]; 25 mg/L,9 (The antibacterial rate of 90˜100% could be set as 9 if the target has totally no growth)
same,Fungicidal activity (antibacterial rate grade) Colletotrichum gloeobosporioids,[2]; 50 mg/L,9 (The antibacterial rate of 90˜100% could be set as 9 if the target has totally no growth)
same,Fungicidal activity (antibacterial rate grade) Colletotrichum gloeobosporioids,[2]; 100 mg/L,9 (The antibacterial rate of 90˜100% could be set as 9 if the target has totally no growth)
same,Fungicidal activity (antibacterial rate grade) Septoria nodorum Berk.,Septoria nodorum Berk.; 12.5 mg/L,9 (The antibacterial rate of 90˜100% could be set as 9 if the target has totally no growth)
same,Fungicidal activity (antibacterial rate grade) Septoria nodorum Berk.,Septoria nodorum Berk.; 25 mg/L,9 (The antibacterial rate of 90˜100% could be set as 9 if the target has totally no growth)
same,Fungicidal activity (antibacterial rate grade) Septoria nodorum Berk.,Septoria nodorum Berk.; 50 mg/L,9 (The antibacterial rate of 90˜100% could be set as 9 if the target has totally no growth)
same,Fungicidal activity (antibacterial rate grade) Septoria nodorum Berk.,Septoria nodorum Berk.; 100 mg/L,9 (The antibacterial rate of 90˜100% could be set as 9 if the target has totally no growth)
same,Fungicidal activity (antibacterial rate grade) Magnaporthe oryzae,Magnaporthe oryzae; 12.5 mg/L,9 (The antibacterial rate of 90˜100% could be set as 9 if the target has totally no growth)
same,Fungicidal activity (antibacterial rate grade) Magnaporthe oryzae,Magnaporthe oryzae; 25 mg/L,9 (The antibacterial rate of 90˜100% could be set as 9 if the target has totally no growth)
same,Fungicidal activity (antibacterial rate grade) Magnaporthe oryzae,Magnaporthe oryzae; 50 mg/L,9 (The antibacterial rate of 90˜100% could be set as 9 if the target has totally no growth)
same,Fungicidal activity (antibacterial rate grade) Magnaporthe oryzae,Magnaporthe oryzae; 100 mg/L,9 (The antibacterial rate of 90˜100% could be set as 9 if the target has totally no growth)
same,Fungicidal activity (antibacterial rate grade) Rhizoctonia solani,Rhizoctonia solani; 12.5 mg/L,3 (The antibacterial rate of 0˜30% could be set as 3 if the growth of the target is normal and consistent with that of the blank control)
same,Fungicidal activity (antibacterial rate grade) Rhizoctonia solani,Rhizoctonia solani; 25 mg/L,3 (The antibacterial rate of 0˜30% could be set as 3 if the growth of the target is normal and consistent with that of the blank control)
same,Fungicidal activity (antibacterial rate grade) Rhizoctonia solani,Rhizoctonia solani; 50 mg/L,3 (The antibacterial rate of 0˜30% could be set as 3 if the growth of the target is normal and consistent with that of the blank control)
same,Fungicidal activity (antibacterial rate grade) Rhizoctonia solani,Rhizoctonia solani; 100 mg/L,3 (The antibacterial rate of 0˜30% could be set as 3 if the growth of the target is normal and consistent with that of the blank control)
same,Fungicidal activity (antibacterial rate grade) Pythium aphanidematum,Pythium aphanidermatum; 12.5 mg/L,3 (The antibacterial rate of 0˜30% could be set as 3 if the growth of the target is normal and consistent with that of the blank control)
same,Fungicidal activity (antibacterial rate grade) Pythium aphanidematum,Pythium aphanidermatum; 25 mg/L,3 (The antibacterial rate of 0˜30% could be set as 3 if the growth of the target is normal and consistent with that of the blank control)
same,Fungicidal activity (antibacterial rate grade) Pythium aphanidematum,Pythium aphanidermatum; 50 mg/L,3 (The antibacterial rate of 0˜30% could be set as 3 if the growth of the target is normal and consistent with that of the blank control)
same,Fungicidal activity (antibacterial rate grade) Pythium aphanidematum,Pythium aphanidermatum; 100 mg/L,3 (The antibacterial rate of 0˜30% could be set as 3 if the growth of the target is normal and consistent with that of the blank control)
same,Fungicidal activity (antibacterial rate grade) Verticillium dahliae. kieb.,[3]; 12.5 mg/L,9 (The antibacterial rate of 90˜100% could be set as 9 if the target has totally no growth)
same,Fungicidal activity (antibacterial rate grade) Verticillium dahliae. kieb.,[3]; 25 mg/L,9 (The antibacterial rate of 90˜100% could be set as 9 if the target has totally no growth)
same,Fungicidal activity (antibacterial rate grade) Verticillium dahliae. kieb.,[3]; 50 mg/L,9 (The antibacterial rate of 90˜100% could be set as 9 if the target has totally no growth)
same,Fungicidal activity (antibacterial rate grade) Verticillium dahliae. kieb.,[3]; 100 mg/L,9 (The antibacterial rate of 90˜100% could be set as 9 if the target has totally no growth)
same,Insecticidal activity (mortality rate grade) Aphiscraccivora,Aphiscraccivora; 125 mg/L test solution,0 (mortality rate of 0˜30%)
same,Insecticidal activity (mortality rate grade) Aphiscraccivora,Aphiscraccivora; 250 mg/L test solution,0 (mortality rate of 0˜30%)
same,Insecticidal activity (mortality rate grade) Aphiscraccivora,Aphiscraccivora; 500 mg/L test solution,0 (mortality rate of 0˜30%)
same,Fungicidal activity (antibacterial rate grade) Fusarium oxysporum f. sp. Niveum,[4]; 12.5 mg/L,9 (The antibacterial rate of 90˜100% could be set as 9 if the target has totally no growth)
same,Fungicidal activity (antibacterial rate grade) Fusarium oxysporum f. sp. Niveum,[4]; 25 mg/L,9 (The antibacterial rate of 90˜100% could be set as 9 if the target has totally no growth)
same,Fungicidal activity (antibacterial rate grade) Fusarium oxysporum f. sp. Niveum,[4]; 50 mg/L,9 (The antibacterial rate of 90˜100% could be set as 9 if the target has totally no growth)
same,Fungicidal activity (antibacterial rate grade) Fusarium oxysporum f. sp. Niveum,[4]; 100 mg/L,9 (The antibacterial rate of 90˜100% could be set as 9 if the target has totally no growth)
